# According to paper PMC2229062 (The Journal of General Physiology, 1991):
# Tested on: GK (G protein coupled to the muscarinic K+ channel IK.ACh)
# Assay: inside-out patch clamp, inhibition of GTP-induced IK.ACh openings, Hill fit
# Assay type: biochemical, Cavia porcellus
# Details: no agonist; against 10 µM GTP; same; assumed competitive with GTP
structure (smiles),measurement,value
Nc1nc2c(ncn2[C@@H]2O[C@H](COP(=O)(O)OP(=O)(O)O)[C@@H](O)[C@H]2O)c(=O)[nH]1 [GDP],IC50,510 nM
